Our source for the IC50, ΔTm and Ki values is ChEMBL document CHEMBL1145498, “A systematic interaction map of validated kinase inhibitors with Ser/Thr kinases” (Proc Natl Acad Sci U S A, 2007).

In test [1] the target is Proto-oncogene tyrosine-protein kinase Src (Homo sapiens, UniProt P12931). The test can be described thus: Inhibition of Src. To be noted: read-out: IC50.
Test [2] has as its target Calcium/calmodulin-dependent protein kinase type II subunit alpha (Homo sapiens) (UniProt Q9UQM7).
Test [3] has as its target Calcium/calmodulin-dependent protein kinase type II subunit gamma (Homo sapiens) (UniProt Q13555).
In test [4] the target is T1, Calcium/calmodulin-dependent protein kinase type IV (Homo sapiens) (UniProt Q16566).
T1 sequence (whole entry): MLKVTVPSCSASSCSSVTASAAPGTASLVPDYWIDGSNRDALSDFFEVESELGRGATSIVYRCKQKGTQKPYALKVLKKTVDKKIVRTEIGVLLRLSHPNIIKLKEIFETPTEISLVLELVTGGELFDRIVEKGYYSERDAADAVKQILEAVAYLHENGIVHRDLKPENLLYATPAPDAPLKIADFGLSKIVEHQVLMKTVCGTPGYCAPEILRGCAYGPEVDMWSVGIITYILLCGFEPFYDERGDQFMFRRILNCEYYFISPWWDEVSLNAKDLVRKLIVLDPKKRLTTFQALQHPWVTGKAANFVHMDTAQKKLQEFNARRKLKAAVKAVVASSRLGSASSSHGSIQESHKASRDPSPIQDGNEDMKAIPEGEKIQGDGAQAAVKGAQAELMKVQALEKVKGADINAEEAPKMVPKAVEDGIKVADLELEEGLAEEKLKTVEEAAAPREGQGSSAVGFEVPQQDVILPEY

Test [5] addresses Cyclin-dependent kinase-like 1 (Homo sapiens) (UniProt Q00532).
Test [6] concerns the target Dual specificity protein kinase CLK3 (Homo sapiens) (UniProt P49761).
Test [7] addresses Casein kinase I isoform gamma-1 (Homo sapiens) (UniProt Q9HCP0).
The target in test [8] is Death-associated protein kinase 3 (Homo sapiens) (UniProt O43293).
Test [9] has as its target Tyrosine-protein kinase JAK1 (Homo sapiens) (UniProt P23458).
Test [10] has as its target Mitogen-activated protein kinase 11 (Homo sapiens, UniProt Q15759).
The target of test [11] is Mitogen-activated protein kinase 3 (Homo sapiens, UniProt P27361).
The target of test [12] is Mitogen-activated protein kinase 6 (Homo sapiens) (UniProt Q16659).
In test [13] the target is Serine/threonine-protein kinase PAK 6 (Homo sapiens) (UniProt Q9NQU5).
In test [14] the target is Cyclin-dependent kinase 16 (Homo sapiens) (UniProt Q00536).
Test [15] addresses Serine/threonine-protein kinase pim-1 (Homo sapiens) (UniProt P11309).
The target of test [16] is Serine/threonine-protein kinase pim-2 (Homo sapiens, UniProt Q9P1W9).
The target of test [17] is Serine/threonine-protein kinase pim-3 (Homo sapiens) (UniProt Q86V86).
The target in test [18] is Serine/threonine-protein kinase PLK1 (Homo sapiens) (UniProt P53350).
Test [19] has as its target cAMP-dependent protein kinase catalytic subunit alpha (Homo sapiens) (UniProt P17612).
For test [20], the target named is STE20-like serine/threonine-protein kinase (Homo sapiens) (UniProt Q9H2G2).
Test [21] addresses Serine/threonine-protein kinase 38 (Homo sapiens) (UniProt Q15208).
Test [22] addresses Serine/threonine-protein kinase VRK2 (Homo sapiens) (UniProt Q86Y07).
The next test addresses TGF-beta receptor type-1 (Homo sapiens, UniProt P36897).
The target of test [23] is T2, Epidermal growth factor receptor (Homo sapiens, UniProt P00533).
Test [24] in a line: Inhibition of Cdk2/cyclin B.
Test [25] concerns the target T2, Epidermal growth factor receptor. This is another data set of the same source.
For test [26], the target named is Vascular endothelial growth factor receptor 2 (Homo sapiens, UniProt P35968).
Test [27] deals with KB. Kind of test: cells. The note with it: Homo sapiens.
Test [28] has as its system KB. The test can be described thus: cells. To be noted: Homo sapiens. The source holds these as a separate data set.
Test [29] can be described thus: Binding affinity at PKC.
The target in test [30] is Myosin light chain kinase, smooth muscle (Homo sapiens, UniProt Q15746). Kind of test: Binding affinity at MLCK.
Test [31] deals with Calcium/calmodulin-dependent protein kinase kinase 2 (Homo sapiens, UniProt Q96RR4). The test can be described thus: Inhibition of CaM-KKbeta.

Cyclin-dependent kinase-like 1 (Homo sapiens), sequence (Q00532 whole entry): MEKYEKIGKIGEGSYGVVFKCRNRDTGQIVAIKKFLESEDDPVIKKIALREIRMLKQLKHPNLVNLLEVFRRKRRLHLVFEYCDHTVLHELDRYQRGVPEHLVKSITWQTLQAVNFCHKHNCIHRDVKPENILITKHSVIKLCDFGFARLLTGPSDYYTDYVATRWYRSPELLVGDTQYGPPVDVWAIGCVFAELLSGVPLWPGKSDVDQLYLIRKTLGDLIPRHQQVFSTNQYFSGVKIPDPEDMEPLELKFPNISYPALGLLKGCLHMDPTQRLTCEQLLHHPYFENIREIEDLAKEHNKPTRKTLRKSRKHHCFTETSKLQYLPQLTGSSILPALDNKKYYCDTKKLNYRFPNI
Tyrosine-protein kinase JAK1 (Homo sapiens), sequence (P23458 whole entry): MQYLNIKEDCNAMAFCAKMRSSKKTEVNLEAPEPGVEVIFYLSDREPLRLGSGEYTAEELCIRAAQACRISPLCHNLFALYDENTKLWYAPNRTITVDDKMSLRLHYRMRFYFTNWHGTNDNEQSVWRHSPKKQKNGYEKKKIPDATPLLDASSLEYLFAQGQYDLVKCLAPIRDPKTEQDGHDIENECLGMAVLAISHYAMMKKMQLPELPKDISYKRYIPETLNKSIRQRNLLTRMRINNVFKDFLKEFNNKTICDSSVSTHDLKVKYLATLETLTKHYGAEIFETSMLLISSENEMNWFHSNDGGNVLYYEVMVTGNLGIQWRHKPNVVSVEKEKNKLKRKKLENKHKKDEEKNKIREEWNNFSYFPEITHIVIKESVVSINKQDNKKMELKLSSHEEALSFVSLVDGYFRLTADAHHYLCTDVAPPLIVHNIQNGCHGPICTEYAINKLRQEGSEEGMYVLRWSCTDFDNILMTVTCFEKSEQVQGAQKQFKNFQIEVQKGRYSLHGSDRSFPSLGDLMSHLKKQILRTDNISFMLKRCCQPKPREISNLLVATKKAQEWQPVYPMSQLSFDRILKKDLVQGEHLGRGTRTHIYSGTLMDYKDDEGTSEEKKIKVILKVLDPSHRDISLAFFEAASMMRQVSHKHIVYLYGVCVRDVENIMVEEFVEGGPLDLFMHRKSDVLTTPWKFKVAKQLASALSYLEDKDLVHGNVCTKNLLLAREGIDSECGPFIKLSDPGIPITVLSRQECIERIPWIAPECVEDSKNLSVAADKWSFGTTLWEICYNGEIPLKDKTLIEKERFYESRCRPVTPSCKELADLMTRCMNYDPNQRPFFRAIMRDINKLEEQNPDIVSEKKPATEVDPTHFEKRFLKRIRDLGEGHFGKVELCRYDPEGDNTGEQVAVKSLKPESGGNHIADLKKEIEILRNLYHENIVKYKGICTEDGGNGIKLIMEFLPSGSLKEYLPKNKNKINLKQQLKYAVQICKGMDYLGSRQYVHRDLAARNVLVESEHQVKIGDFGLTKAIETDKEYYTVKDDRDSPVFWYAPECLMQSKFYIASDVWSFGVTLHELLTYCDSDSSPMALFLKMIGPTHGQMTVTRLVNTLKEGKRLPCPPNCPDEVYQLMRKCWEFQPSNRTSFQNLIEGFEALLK
Calcium/calmodulin-dependent protein kinase type II subunit gamma (Homo sapiens), sequence (Q13555 whole entry): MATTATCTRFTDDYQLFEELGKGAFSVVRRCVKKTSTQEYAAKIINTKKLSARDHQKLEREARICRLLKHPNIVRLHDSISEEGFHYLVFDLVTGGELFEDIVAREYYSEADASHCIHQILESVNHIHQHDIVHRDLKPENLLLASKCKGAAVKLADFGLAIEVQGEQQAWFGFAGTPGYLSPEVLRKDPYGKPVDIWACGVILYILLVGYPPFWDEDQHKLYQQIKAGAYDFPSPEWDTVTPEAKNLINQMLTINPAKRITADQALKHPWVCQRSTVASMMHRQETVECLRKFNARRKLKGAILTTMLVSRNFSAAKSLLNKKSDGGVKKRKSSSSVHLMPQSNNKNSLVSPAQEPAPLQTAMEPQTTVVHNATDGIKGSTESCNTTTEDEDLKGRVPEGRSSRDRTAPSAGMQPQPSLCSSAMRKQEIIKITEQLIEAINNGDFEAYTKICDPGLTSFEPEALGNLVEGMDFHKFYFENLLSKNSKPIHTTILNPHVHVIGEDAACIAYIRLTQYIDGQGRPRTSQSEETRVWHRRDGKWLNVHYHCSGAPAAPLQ
Serine/threonine-protein kinase pim-2, sequence (Q9P1W9 whole entry, looked up): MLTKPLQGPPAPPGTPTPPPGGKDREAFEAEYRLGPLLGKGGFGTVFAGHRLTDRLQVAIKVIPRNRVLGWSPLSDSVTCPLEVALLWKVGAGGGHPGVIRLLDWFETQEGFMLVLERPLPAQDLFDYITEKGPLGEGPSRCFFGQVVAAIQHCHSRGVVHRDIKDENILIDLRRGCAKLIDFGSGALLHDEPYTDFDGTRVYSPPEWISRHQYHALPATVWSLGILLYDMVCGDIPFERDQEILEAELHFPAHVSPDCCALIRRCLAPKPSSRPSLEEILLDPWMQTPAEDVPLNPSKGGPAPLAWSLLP
Mitogen-activated protein kinase 6 (Homo sapiens), sequence (Q16659 whole entry): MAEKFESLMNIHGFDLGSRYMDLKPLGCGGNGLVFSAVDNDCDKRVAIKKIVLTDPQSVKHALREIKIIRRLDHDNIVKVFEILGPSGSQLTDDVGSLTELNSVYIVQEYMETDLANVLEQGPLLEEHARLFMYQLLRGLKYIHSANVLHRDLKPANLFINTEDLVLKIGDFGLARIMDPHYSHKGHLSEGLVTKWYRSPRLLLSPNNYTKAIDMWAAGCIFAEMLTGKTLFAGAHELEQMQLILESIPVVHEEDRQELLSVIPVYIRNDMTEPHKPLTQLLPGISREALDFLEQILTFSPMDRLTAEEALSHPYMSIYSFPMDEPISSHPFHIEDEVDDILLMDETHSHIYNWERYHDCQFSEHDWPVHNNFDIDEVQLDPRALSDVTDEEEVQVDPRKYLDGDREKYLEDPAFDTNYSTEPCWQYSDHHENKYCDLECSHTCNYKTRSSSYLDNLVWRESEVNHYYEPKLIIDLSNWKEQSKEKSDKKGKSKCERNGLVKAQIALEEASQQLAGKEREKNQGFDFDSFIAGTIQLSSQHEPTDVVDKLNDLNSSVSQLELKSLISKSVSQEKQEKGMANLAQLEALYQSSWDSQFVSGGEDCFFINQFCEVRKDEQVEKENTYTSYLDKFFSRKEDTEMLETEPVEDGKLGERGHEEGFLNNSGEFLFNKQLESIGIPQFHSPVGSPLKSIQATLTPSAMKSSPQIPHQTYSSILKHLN
Mitogen-activated protein kinase 11, sequence (Q15759 whole entry): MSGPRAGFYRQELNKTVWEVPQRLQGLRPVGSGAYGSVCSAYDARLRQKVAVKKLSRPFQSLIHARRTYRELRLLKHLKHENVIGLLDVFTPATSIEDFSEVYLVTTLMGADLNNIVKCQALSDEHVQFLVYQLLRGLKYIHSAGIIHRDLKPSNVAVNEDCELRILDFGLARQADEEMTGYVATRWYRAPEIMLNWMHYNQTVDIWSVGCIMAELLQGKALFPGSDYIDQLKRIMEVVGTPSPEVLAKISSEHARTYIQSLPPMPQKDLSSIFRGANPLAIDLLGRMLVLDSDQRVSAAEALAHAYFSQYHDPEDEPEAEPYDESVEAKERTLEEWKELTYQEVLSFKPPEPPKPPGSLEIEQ
Serine/threonine-protein kinase PAK 6 (Homo sapiens), sequence (Q9NQU5 whole entry, looked up): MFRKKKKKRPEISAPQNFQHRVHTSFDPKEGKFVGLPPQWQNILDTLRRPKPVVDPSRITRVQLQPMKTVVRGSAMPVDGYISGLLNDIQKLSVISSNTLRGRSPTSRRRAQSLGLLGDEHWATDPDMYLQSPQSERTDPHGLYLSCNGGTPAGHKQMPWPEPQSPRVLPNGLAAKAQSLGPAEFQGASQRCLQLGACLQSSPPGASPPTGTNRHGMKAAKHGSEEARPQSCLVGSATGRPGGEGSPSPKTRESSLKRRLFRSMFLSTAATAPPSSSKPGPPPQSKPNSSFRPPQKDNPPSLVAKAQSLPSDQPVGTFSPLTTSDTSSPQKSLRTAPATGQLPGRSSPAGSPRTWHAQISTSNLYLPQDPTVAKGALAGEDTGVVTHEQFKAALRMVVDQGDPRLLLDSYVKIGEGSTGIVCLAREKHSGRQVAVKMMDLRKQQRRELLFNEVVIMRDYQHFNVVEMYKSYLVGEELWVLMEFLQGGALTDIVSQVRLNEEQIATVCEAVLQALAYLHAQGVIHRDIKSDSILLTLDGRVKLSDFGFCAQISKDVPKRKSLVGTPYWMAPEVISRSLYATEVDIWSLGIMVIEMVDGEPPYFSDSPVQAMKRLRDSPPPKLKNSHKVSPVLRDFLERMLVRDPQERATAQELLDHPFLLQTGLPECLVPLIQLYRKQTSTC
Cyclin-dependent kinase 16 (Homo sapiens), sequence (Q00536 whole entry): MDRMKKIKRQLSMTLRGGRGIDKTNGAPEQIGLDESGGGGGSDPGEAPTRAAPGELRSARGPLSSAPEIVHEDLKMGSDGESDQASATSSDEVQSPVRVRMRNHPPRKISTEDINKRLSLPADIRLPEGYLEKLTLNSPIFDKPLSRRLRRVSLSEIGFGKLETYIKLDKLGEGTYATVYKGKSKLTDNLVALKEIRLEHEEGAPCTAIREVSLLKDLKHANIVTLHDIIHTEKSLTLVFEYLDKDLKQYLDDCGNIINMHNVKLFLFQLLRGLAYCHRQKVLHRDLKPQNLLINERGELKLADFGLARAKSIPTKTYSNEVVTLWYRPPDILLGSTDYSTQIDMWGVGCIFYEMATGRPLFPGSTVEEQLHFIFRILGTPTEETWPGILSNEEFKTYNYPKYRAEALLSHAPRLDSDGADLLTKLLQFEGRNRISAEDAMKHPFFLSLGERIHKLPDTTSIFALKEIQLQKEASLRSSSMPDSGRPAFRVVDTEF
Mitogen-activated protein kinase 3, sequence (P27361 whole entry): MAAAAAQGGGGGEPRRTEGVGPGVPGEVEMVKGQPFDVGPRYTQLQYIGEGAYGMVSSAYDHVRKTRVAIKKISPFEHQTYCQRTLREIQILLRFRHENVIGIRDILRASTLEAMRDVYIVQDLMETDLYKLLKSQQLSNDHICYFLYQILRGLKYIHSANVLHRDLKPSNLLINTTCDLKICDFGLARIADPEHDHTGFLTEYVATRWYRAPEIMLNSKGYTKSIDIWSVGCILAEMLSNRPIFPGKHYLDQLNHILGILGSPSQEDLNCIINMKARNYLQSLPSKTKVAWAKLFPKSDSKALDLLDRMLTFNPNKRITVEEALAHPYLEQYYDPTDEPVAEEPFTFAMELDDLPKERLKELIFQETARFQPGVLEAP

As for `CC(C)(C)c1cc(C=C2C(=O)C=CC2=O)cc(C(C)(C)C)c1O`, the IC50 in test [1] is 2200 nM. For the same molecule, the ΔTm is 0.3 °C in test [2]; 0.3 °C in [3]; -1.5 °C in test [4]; -5.5 °C in [5]; 0.1 °C in test [6]; 0.9 °C in test [7]. Moreover, the shift in melting temperature (ΔTm) in [8] was -0.4 °C; in [9], -7.9 °C; in test [10] it was -1.5 °C; in test [11] it was 0.1 °C; in test [12], -0.7 °C; in [13], -2.5 °C. Also, the ΔTm in [14] is 4.4 °C; in [15] it was -1.1 °C; in test [16], -5.7 °C; in [17] it was 0.4 °C; in test [18], 1.1 °C; in test [19], 0.8 °C. Besides, the results for the ΔTm in test [20], in test [21] and in test [22] were 0.9 °C, 0.4 °C and 0 °C, respectively.

The molecule `NC(=O)c1ccc(-c2nc(-c3ccc4c(c3)OCCO4)c(-c3ccccn3)[nH]2)cc1` came in with an IC50 against TGF-beta receptor type-1 of 500 nM. Besides, the ΔTm is 0.1 °C in [2]; 0.3 °C in [3]; -0.9 °C in test [4]; -0.3 °C in test [5]; 0.1 °C in [6]; 0.4 °C in test [7]. Besides, the thermal shift (ΔTm) in test [8] is -0.3 °C; in [9] it was 1.3 °C; in test [10], -0.1 °C; in test [11], -0.1 °C; in [12], -0.1 °C; in [13], 0 °C. The ΔTm was -0.4 °C in test [14]; -0.5 °C in [15]; -0.2 °C in [16]; 0.4 °C in [17]; -0.5 °C in [18]; -0.3 °C in test [19]. For the same molecule, the ΔTm in test [20] was -1.1 °C; in test [21] it was 0.5 °C; in [22] it was 0.5 °C.

`O=c1ccc2ccc(O)c(O)c2o1` [DAPHNETIN]: the IC50 in [23] is 7670 nM. The ΔTm in test [2] was 0.4 °C; in test [3] it was 0 °C; in test [4] it was -0.1 °C; in test [5], 0.3 °C; in [6], 0.1 °C; in [7] it was 0 °C. Moreover, the ΔTm in test [8] was -0.6 °C; in test [9], 0.2 °C; in test [10], -0.7 °C; in test [11], 0.3 °C; in [12], 0.2 °C; in test [13], -0.2 °C. The ΔTm in test [14] was -0.6 °C; in test [15], 0.2 °C; in test [16], 0.7 °C; in [17], 0.8 °C; in test [18], -0.1 °C; in test [19] it was 0.6 °C. The ΔTm is 0.1 °C in test [20], 0.3 °C in [21] and -0.1 °C in [22].

In turn, `NC1=NC(=O)/C(=C2\CCNC(=O)c3[nH]c(Br)cc32)N1` [HYMENIALDISINE] gave a 50% inhibitory concentration (IC50) in test [24] of 40 nM. Also, the thermal shift (ΔTm) amounted to 0.4 °C in test [2]; 0.2 °C in test [3]; 0.1 °C in test [4]; 0.6 °C in [5]; 8.3 °C in [6]; 5.7 °C in [7]. Besides, the ΔTm in [8] was 7.6 °C; in test [9] it was 0.2 °C; in test [10] it was 0.1 °C; in test [11] it was 0.9 °C; in [12], -0.1 °C; in test [13] it was 1.2 °C. Further, the ΔTm in test [14] was determined as 0.1 °C; in test [15], 0.7 °C; in test [16], 3.7 °C; in test [17], 3.8 °C; in test [18], 5.8 °C; in test [19] it was 0.8 °C. Moreover, the ΔTm in test [20] was determined as 2.1 °C; in [21] it was 1 °C; in test [22], 0.8 °C.

As for `O=C(O)/C=C/c1cc(CO)ccc1CO`, in [25], the IC50 turned out to be 780 nM. The ΔTm in test [2] was -0.1 °C; in test [3], 0.1 °C; in test [4] it was 0.5 °C; in [5], -0.1 °C; in [6], 0 °C; in test [7] it was 0.7 °C. The ΔTm in [8] is 0.8 °C; in test [9], 0.8 °C; in test [10], 0.3 °C; in test [11], 0.2 °C; in [12], 0.3 °C; in test [13] it was -0.4 °C. For the same molecule, the shift in melting temperature (ΔTm) in test [14] was -0.2 °C; in test [15], 0.6 °C; in test [16], 1.6 °C; in [17] it was 2.2 °C; in test [18] it was 0.3 °C; in [19] it was 0.4 °C. Further, the ΔTm worked out at 0 °C in test [20], 0.1 °C in test [21] and 0.3 °C in [22].

In [26], `CC(C)c1cc(/C=C(\C#N)C(=O)NCCCc2ccccc2)cc(C(C)C)c1O` showed an IC50 of 700 nM. Moreover, the ΔTm came to 0.6 °C in [2]; 0.5 °C in test [3]; 1.2 °C in test [4]; 1.2 °C in test [5]; 1.2 °C in test [6]; 0.8 °C in test [7]. For the same molecule, the ΔTm in test [8] is 0.7 °C; in test [9] it was 0.1 °C; in test [10], 0.1 °C; in test [11], -0.1 °C; in test [12] it was 1.3 °C; in test [13], 0.1 °C. Moreover, the ΔTm in test [14] is -0.1 °C; in test [15], 0.8 °C; in test [16], 0.7 °C; in test [17], 0.3 °C; in test [18], 0.4 °C; in test [19], 0.5 °C. In addition, the ΔTm in test [20] came to 1.2 °C; in test [21], 0.7 °C; in [22], 0.7 °C.

Turning to `CN1CCC(Nc2ncc3ncnc(Nc4ccc(F)c(Cl)c4)c3n2)CC1` [FALNIDAMOL], the ΔTm was -0.2 °C in test [2]; 1.4 °C in test [3]; 0.1 °C in [4]; 3.2 °C in [5]; 2.7 °C in [6]; 0.4 °C in test [7]. For the same molecule, the ΔTm worked out at 0.3 °C in test [8]; 0.5 °C in [9]; 0 °C in test [10]; 1.7 °C in test [11]; 0 °C in test [12]; 2.9 °C in test [13]. Moreover, the ΔTm in [14] worked out at 7.7 °C; in test [15], 5.2 °C; in test [16] it was 0.1 °C; in test [17], 0.5 °C; in test [18] it was 1.1 °C; in test [19], 0.4 °C. Moreover, the IC50 in the test with KB [27] came out at 1.82 nM; with KB [28], 3200 nM.

`O=S(=O)(NCCNC/C=C/c1ccc(Br)cc1)c1cccc2cnccc12`: the values for the Ki in [29], in test [30] and in [31] were 31700 nM, 28300 nM and 29700 nM, respectively. The ΔTm was 0.5 °C in [2]; 0 °C in [3]; 0.4 °C in [4]; -0.1 °C in test [5]; 1 °C in test [6]; 0.6 °C in test [7]. For the same molecule, the ΔTm in test [8] was 3.8 °C; in test [9] it was -0.3 °C; in [10] it was 0.4 °C; in [11] it was -0.3 °C; in test [12], 0.4 °C; in test [13], 1.5 °C. The ΔTm is 0.7 °C in test [14]; -0.2 °C in test [15]; -0.3 °C in [16]; 1 °C in test [17]; 1 °C in test [18]; 6.9 °C in test [19]. Further, the ΔTm in [20] stood at 1.6 °C; in test [21], 1.7 °C; in test [22], 0.1 °C.
